Measured values taken from the NIST ThermoML archive (doi:10.1016/j.tca.2010.04.025).
Where “and” joins values, the source holds several entries; their conditions need not be identical. Equal entries are not always repeated.

Experiments:
[1] = 101 kPa, Liquid; for speed of sound: Linear variable-path acoustic interferometer; for mass density: Pycnometric method
[2] = xn = mol fraction of the nth substance listed; settings: 101 kPa, Liquid; for speed of sound: Linear variable-path acoustic interferometer; for mass density: Pycnometric method

CCNc1ccccc1 [N-ethylaminobenzene]
[1]
Settings	mass density [kg/m3]	speed of sound [m/s]
303.15 K	951.9	1497
313.15 K	944.3	1462
323.15 K	935.9	1431

CCNc1ccccc1 [N-ethylaminobenzene] + C1CCOC1
[2]
Settings	mass density, 303.15 K [kg/m3]	mass density, 313.15 K [kg/m3]	mass density, 323.15 K [kg/m3]	speed of sound, 303.15 K [m/s]	speed of sound, 313.15 K [m/s]	speed of sound, 323.15 K [m/s]
x2 = 0	951.9	944.3	935.9	1497	1462	1431
x2 = 0.0904	947.8	940.8	932.8	1482	1450	1420
x2 = 0.1892	943.8	936.7	929.1	1469	1435	1404
x2 = 0.2849	939.5	932.4	925.2	1452	1418	1388
x2 = 0.3819	934.5	927.6	920.6	1433	1399	1367
x2 = 0.4674	929.3	922.6	915.7	1414	1379	1346
x2 = 0.5758	921.9	915.2	908.1	1387	1351	1317
x2 = 0.6778	913.1	906.4	899.5	1360	1323	1286
x2 = 0.7876	902.1	895.4	887.7	1326	1287	1250
x2 = 0.8903	890.8	882.8	874.2	1291	1251	1215

CNc1ccccc1 [N-methylaniline]
[1]
Settings	mass density [kg/m3]	speed of sound [m/s]
303.15 K	978.2	1548
313.15 K	969.8	1512
323.15 K	961	1477

CNc1ccccc1 [N-methylaniline] + C1CCOC1
[2]
Settings	mass density, 303.15 K [kg/m3]	mass density, 313.15 K [kg/m3]	mass density, 323.15 K [kg/m3]	speed of sound, 303.15 K [m/s]	speed of sound, 313.15 K [m/s]	speed of sound, 323.15 K [m/s]
x2 = 0	978.2	969.8	961	1548	1512	1477
x2 = 0.0831	973.1	964.9	956.6	1528	1493	1459
x2 = 0.1864	966	958.3	949.9	1502	1466	1433
x2 = 0.2813	959.1	951.4	943.4	1478	1442	1407
x2 = 0.3782	951.5	944	935.8	1453	1416	1381
x2 = 0.4714	943.5	936	927.4	1428	1390	1354
x2 = 0.5746	933.2	926	916.9	1396	1358	1322
x2 = 0.6956	919.4	912.2	902.6	1357	1318	1282
x2 = 0.7823	908.2	900.8	891.1	1329	1289	1252
x2 = 0.8882	893.4	885.7	875.8	1293	1252	1213

Nc1ccccc1 [aniline]
[1]
Settings	mass density [kg/m3]	speed of sound [m/s]
303.15 K	1012.8	1615
313.15 K	1004.9	1583
323.15 K	998.4	1558

Nc1ccccc1 [aniline] + C1CCOC1
[2]
Settings	mass density, 303.15 K [kg/m3]	mass density, 313.15 K [kg/m3]	mass density, 323.15 K [kg/m3]	speed of sound, 303.15 K [m/s]	speed of sound, 313.15 K [m/s]	speed of sound, 323.15 K [m/s]
x2 = 0	1012.8	1004.9	998.4	1615	1583	1558
x2 = 0.087	1004.4	997.5	991.5	1592	1561	1537
x2 = 0.1803	994.8	988.2	981.6	1565	1531	1510
x2 = 0.2735	984.8	978.5	971.8	1535	1500	1478
x2 = 0.3573	975.4	969.4	962.4	1509	1473	1450
x2 = 0.4556	964.1	957.8	951.6	1476	1440	1417
x2 = 0.5638	950.5	943.9	937.9	1438	1402	1379
x2 = 0.6708	935	928.7	922.6	1393	1359	1334
x2 = 0.8169	910.1	904	898.5	1334	1299	1268
x2 = 0.8812	898.7	892.2	885	1306	1267	1237

C1CCOC1 [tetrahydrofuran]
[1]
Settings	mass density	speed of sound [m/s]
303.15 K	877.3 kg/m3	1256
313.15 K	867.2 kg/m3	1212
323.15 K	856.6 kg/m3 and 857.1 kg/m3	1171

C1CCOC1 [tetrahydrofuran] + CCNc1ccccc1
[2], x1 = 1
Settings	mass density [kg/m3]	speed of sound [m/s]
303.15 K	877.3	1256
313.15 K	867.2	1212
323.15 K	857.1	1171

C1CCOC1 [tetrahydrofuran] + CNc1ccccc1
[2], x1 = 1
Settings	mass density [kg/m3]	speed of sound [m/s]
303.15 K	877.3	1256
313.15 K	867.2	1212
323.15 K	856.6	1171

C1CCOC1 [tetrahydrofuran] + Nc1ccccc1
[2], x1 = 1
Settings	mass density [kg/m3]	speed of sound [m/s]
303.15 K	877.3	1256
313.15 K	867.2	1212
323.15 K	856.6	1171
